Biological target: T1, human adenosine A2b receptor (Homo sapiens, UniProt P29275)
T1 construct: expressed in transfected cells; host or cells: CHO-K1 (Chinese Hamster Ovary) with CRE-luciferase reporter
T1 sequence (P29275 1-332): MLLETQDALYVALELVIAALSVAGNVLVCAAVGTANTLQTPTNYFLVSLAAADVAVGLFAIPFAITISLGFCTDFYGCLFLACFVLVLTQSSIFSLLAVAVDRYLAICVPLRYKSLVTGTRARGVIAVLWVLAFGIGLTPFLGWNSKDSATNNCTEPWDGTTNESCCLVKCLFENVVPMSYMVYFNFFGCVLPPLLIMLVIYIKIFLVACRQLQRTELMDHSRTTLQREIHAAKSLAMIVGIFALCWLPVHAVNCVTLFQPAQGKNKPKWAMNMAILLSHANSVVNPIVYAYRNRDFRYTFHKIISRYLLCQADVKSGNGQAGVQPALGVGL
Assay: Cellular reporter gene (CRE-luciferase) A2b receptor antagonist assay in recombinant CHO-K1 cells stimulated with NECA
Format: cell-based
Settings: recombinant CHO-K1 cell line, co-incubation with EC50 concentration of NECA, 3 hours, in some cases means, rounded to two significant digits
Experimental: B-1. Cellular In Vitro Tests for Determining A2b Receptor Activity and Adenosine Receptor Selectivity
The identification of selective antagonists of the human adenosine A2b receptor and the quantification of the efficacy and selectivity of the compounds according to the invention was carried out with the aid of recombinant cell lines for the human adenosine receptors A1, A2a, A2b and A3. These cell lines were originally derived from an ovarepithelial cell of the hamster (Chinese Hamster Ovary, CHO-K1, American Type Culture Collection, Manassas, Va. 20108, USA). In addition to the respective recombinantly expressed adenosine receptor for testing the efficacy at the A1, A2a and A2b receptors, the cell lines contain a reporter gene construct where expression of the firefly (Photinus pyralis) luciferase is under the control of a promoter which can be activated via intracellular signal cascades by stimulation of the receptors with the (not subtype-selective) adenosine receptor agonist NECA (5′-N-ethylcarboxamidoadenosine) [S. J. Hill, J. G. Baker, S. Rhees, Curr. Opin. Pharmacol. 1, 526-532 (2001)].
In the case of the A2a and A2b cell lines, this is a minimal promoter having a plurality of cAMP-responsive elements (CRE). Stimulation of the Gs coupled A2b or A2a receptors by NECA ultimately leads, via formation of cAMP, to CRE-dependent induction of luciferase expression, which is detected 3 hours after the start of the incubation with NECA using a detection solution in a suitable luminometer. For testing the antagonists, initially, in a pre-experiment, the concentration of NECA which, at the test day in question, results in half-maximum stimulation of luciferase expression (EC50 concentration) is determined By joint incubation of this EC50 concentration of NECA with the substances to be tested, it is possible to determine their antagonistic activity.

With `CCn1c(=O)c2c(C)c(C(=O)N3CCC(O)(CO)CC3)sc2n(CCOC(F)(F)F)c1=O` [Example 75, 3-Ethyl-6-{[4-hydroxy-4-(hydroxymethyl)piperidin-1-yl]carbonyl}-5-methyl-1-[2-(trifluoromethoxy)ethyl]thieno[2,3-d]pyrimidine-2,4(1H,3H)-dione] the IC50 was 33 nM.

`CCn1c(=O)c2c(C)c(C(=O)N3CCC(C)(O)CC3)sc2n(CCOC(F)(F)F)c1=O` [Example 111, 3-Ethyl-6-[(4-hydroxy-4-methylpiperidin-1-yl)carbonyl]-5-methyl-1-[2-(trifluoromethoxy)ethyl]thieno[2,3-d]pyrimidine-2,4(1H,3H)-dione] showed an IC50 of 4 nM.

`CCn1c(=O)c2c(C(F)(F)F)c(C(=O)N3CCC(O)CC3)sc2n(CCC(F)(F)F)c1=O` [Example 25, 3-Ethyl-6-[(4-hydroxypiperidin-1-yl)carbonyl]-5-(trifluoromethyl)-1-(3,3,3-trifluoropropyl)thieno[2,3-d]pyrimidine-2,4(1H,3H)-dione] gave an IC50 of 49 nM.

With `CCn1c(=O)c2c(C)c(C(=O)N3CCC(O)C(C)C3)sc2n(CCC(F)(F)F)c1=O` (stereo not drawn) [Example 73, 3-Ethyl-6-[(4-hydroxy-3-methylpiperidin-1-yl)carbonyl]-5-methyl-1-(3,3,3-trifluoropropyl)thieno [2,3-d]pyrimidine-2,4(1H,3H)-dione (enantiomer pair 1)] the IC50 was 53 nM.

`O=C(c1sc2c(c1C(F)F)c(=O)n(CCc1ccccc1)c(=O)n2CCC(F)(F)F)N1CCC(O)(CO)CC1` [Example 86, 5-(Difluoromethyl)-6-{[4-hydroxy-4-(hydroxymethyl)piperidin-1-yl]carbonyl}-3-(2-phenylethyl)-1-(3,3,3-trifluoropropyl)thieno[2,3-d]pyrimidine-2,4(1H,3H)-dione] showed an IC50 of 12 nM.

With `CCn1c(=O)c2c(C)c(C(=O)N3CCNC(=O)C3)sc2n(CCOC(F)(F)F)c1=O` [Example 130, 3-Ethyl-5-methyl-6-[(3-oxopiperazin-1-yl)carbonyl]-1-[2-(trifluoromethoxy)ethyl]thieno[2,3-d]pyrimidine-2,4(1H,3H)-dione] the IC50 was 9 nM.

`Cc1c(C(=O)N2CCC(O)CC2)sc2c1c(=O)n(CCc1ccccn1)c(=O)n2CCC(F)(F)F` [Example 53, 6-[(4-Hydroxypiperidin-1-yl)carbonyl]-5-methyl-3-[2-(pyridin-2-yl)ethyl]-1-(3,3,3-trifluoropropyl)thieno[2,3-d]pyrimidine-2,4(1H,3H)-dione] was tested, and the IC50 was 170 nM.

`Cc1c(C(=O)N2CCC(O)CC2)sc2c1c(=O)n(CC(O)c1ccccc1)c(=O)n2CCC(F)(F)F` (single isomer, unassigned) [Example 101, 3-(2-Hydroxy-2-phenylethyl)-6-[(4-hydroxypiperidin-1-yl)carbonyl]-5-methyl-1-(3,3,3-trifluoropropyl)thieno[2,3-d]pyrimidine-2,4(1H,3H)-dione] gave an IC50 of 1200 nM.

In the case of `CCn1c(=O)c2c(C)c(C(=O)N3CCC(O)CC3)sc2n(CCC(C)C)c1=O` [Example 134, 3-Ethyl-6-[(4-hydroxypiperidin-1-yl)carbonyl]-5-methyl-1-(3-methylbutyl)thieno[2,3-d]pyrimidine-2,4(1H,3H)-dione], the IC50 is reported as 360 nM.

With `CCn1c(=O)c2c(C(C)F)c(C(=O)N3CCC(C)(O)CC3)sc2n(CCC(F)(F)F)c1=O` (racemic) [Example 146, 3-Ethyl-5-(1-fluoroethyl)-6-[(4-hydroxy-4-methylpiperidin-1-yl)carbonyl]-1-(3,3,3-trifluoropropyl)thieno[2,3-d]pyrimidine-2,4(1H,3H)-dione] the IC50 was 40 nM.

With `COC(Cn1c(=O)c2c(C)c(C(=O)N3CCC(O)CC3)sc2n(CCC(F)(F)F)c1=O)C(F)(F)F` (single isomer, unassigned) [Example 107, 6-[(4-Hydroxypiperidin-1-yl)carbonyl]-5-methyl-3-(3,3,3-trifluoro-2-methoxypropyl)-1-(3,3,3-trifluoropropyl)thieno[2,3-d]pyrimidine-2,4(1H,3H)-dione] the IC50 was 45 nM.

`CCCn1c(=O)c2c(C)c(C(=O)N3CCNC(=O)C3)sc2n(CCOC(F)(F)F)c1=O` [Example 96, 5-Methyl-6-[(3-oxopiperazin-1-yl)carbonyl]-3-propyl-1-[2-(trifluoromethoxy)ethyl]thieno[2,3-d]pyrimidine-2,4(1H,3H)-dione] was tested, and the IC50 was 65 nM.

Work on `CCn1c(=O)c2c(C(F)(F)F)c(C(=O)N3CCNC(=O)C3)sc2n(CCC(F)(F)F)c1=O` [Example 42, 3-Ethyl-6-[(3-oxopiperazin-1-yl)carbonyl]-5-(trifluoromethyl)-1-(3,3,3-trifluoropropyl)thieno[2,3-d]pyrimidine-2,4(1H,3H)-dione] yielded an IC50 of 88 nM.

For `CCn1c(=O)c2c(C)c(C(=O)N3CCC(O)C(O)C3)sc2n(CCC(F)(F)F)c1=O` (single isomer, unassigned) [Example 117, 6-[(3,4-Dihydroxypiperidin-1-yl)carbonyl]-3-ethyl-5-methyl-1-(3,3,3-trifluoropropyl)thieno [2,3-d]pyrimidine-2,4(1H,3H)-dione], the IC50 was 140 nM.

Molecule `CCCn1c(=O)c2c(C)c(C(=O)N3CCC(O)CC3)sc2n(CCOC(F)(F)F)c1=O` [Example 60, 6-[(4-Hydroxypiperidin-1-yl)carbonyl]-5-methyl-3-propyl-1-[2-(trifluoromethoxy)ethyl]thieno[2,3-d]pyrimidine-2,4(1H,3H)-dione] has an IC50 of 12 nM.

With `Cc1c(C(=O)N2CCC(O)CC2)sc2c1c(=O)n(CCc1ccccc1Cl)c(=O)n2CCC=C(F)F` [Example 7, 3-[2-(2-Chlorophenyl)ethyl]-1-(4,4-difluorobut-3-en-1-yl)-6-[(4-hydroxypiperidin-1-yl)carbonyl]-5-methylthieno[2,3-d]pyrimidine-2,4(1H,3H)-dione] the IC50 was 110 nM.

Molecule `COC(Cn1c(=O)c2c(C)c(C(=O)N3CCC(O)(CO)CC3)sc2n(CCC(F)(F)F)c1=O)C(F)(F)F` (single isomer, unassigned) [Example 115, 6-{[4-Hydroxy-4-(hydroxymethyl)piperidin-1-yl]carbonyl}-5-methyl-3-(3,3,3-trifluoro-2-methoxypropyl)-1-(3,3,3-trifluoropropyl)thieno[2,3-d]pyrimidine-2,4(1H,3H)-dione] has an IC50 of 610 nM.

`CCn1c(=O)c2c(C)c(C(=O)N3CCC(O)CC3)sc2n(CCC(F)=C(F)F)c1=O` [Example 136, 3-Ethyl-6-[(4-hydroxypiperidin-1-yl)carbonyl]-5-methyl-1-(3,4,4-trifluorobut-3-en-1-yl)thieno[2,3-d]pyrimidine-2,4(1H,3H)-dione] gave an IC50 of 310 nM.

With `CCn1c(=O)c2c(C(F)F)c(C(=O)N3CCC(O)CC3)sc2n(CCC(F)(F)F)c1=O` [Example 122, 5-(Difluoromethyl)-3-ethyl-6-[(4-hydroxypiperidin-1-yl)carbonyl]-1-(3,3,3-trifluoropropyl)thieno[2,3-d]pyrimidine-2,4(1H,3H)-dione] the IC50 was 32 nM.

In the case of `CCn1c(=O)c2c(C)c(C(=O)N3CCC(O)CC3)sc2n(CCC=C(F)F)c1=O` [Example 19, 1-(4,4-Difluorobut-3-en-1-yl)-3-ethyl-6-[(4-hydroxypiperidin-1-yl)carbonyl]-5-methylthieno[2,3-d]pyrimidine-2,4(1H,3H)-dione], the IC50 is reported as 92 nM.

Molecule `CCn1c(=O)c2c(C)c(C(=O)N3CCC(O)(CC)CC3)sc2n(CCOC(F)(F)F)c1=O` [Example 112, 3-Ethyl-6-[(4-ethyl-4-hydroxypiperidin-1-yl)carbonyl]-5-methyl-1-[2-(trifluoromethoxy)ethyl]thieno[2,3-d]pyrimidine-2,4(1H,3H)-dione] has an IC50 of 7.9 nM.

`COC(Cn1c(=O)c2c(C)c(C(=O)N3CCC(O)CC3)sc2n(CCC(F)(F)F)c1=O)c1ccccc1` (single isomer, unassigned; enantiomer 1) [Example 48, 6-[(4-Hydroxypiperidin-1-yl)carbonyl]-3-(2-methoxy-2-phenylethyl)-5-methyl-1-(3,3,3-trifluoropropyl)thieno[2,3-d]pyrimidine-2,4(1H,3H)-dione (enantiomer 1)] was tested, and the IC50 was 59 nM.

`COC(Cn1c(=O)c2c(C)c(C(=O)N3CCC(O)CC3)sc2n(CCC(F)(F)F)c1=O)C(F)(F)F` (single isomer, unassigned) [Example 108, 6-[(4-Hydroxypiperidin-1-yl)carbonyl]-5-methyl-3-(3,3,3-trifluoro-2-methoxypropyl)-1-(3,3,3-trifluoropropyl)thieno[2,3-d]pyrimidine-2,4(1H,3H)-dione] gave an IC50 of 580 nM.
